Bridge positions count the residues as written; N and C are the ends. Side chains are listed from the residue outwards. Peptide text beside a SMILES is read from it. * marks the point of attachment. Butanoyl(4-(4-I-phenyl)) = O=C(CCCc1ccc(I)cc1)*; PEG2 = NCCOCCOCCC(=O)O
Experiments:
integrin αvβ3 = integrin αvβ3 (Homo sapiens, UniProt P05106+P06756); assay: ELISA competition assay, integrin αvβ3; assay type: binding
integrin α5β1 = integrin α5β1 (Homo sapiens, UniProt P05556+P08648); assay: ELISA competition assay, integrin α5β1; assay type: binding
[1] = Plasma protein binding, rapid equilibrium dialysis, mouse plasma; assay type: in vitro ADME
[2] = Pharmacokinetics in female Balb/c mice; assay type: in vivo, mouse
HRH1 = HRH1 (Homo sapiens, UniProt P35367); assay: Safetyscan47 GPCR Calcium Flux, Agonist; assay type: cell-based
ADRB1 = ADRB1 (Homo sapiens, UniProt P08588); assay: Safetyscan47 GPCR cAMP, Agonist; assay type: cell-based
CNR2 = CNR2 (Homo sapiens, UniProt P34972); assay: Safetyscan47 GPCR cAMP, Agonist; assay type: cell-based
HRH2 = HRH2 (Homo sapiens, UniProt P25021); assay: Safetyscan47 GPCR cAMP, Agonist; assay type: cell-based
HTR1A = target: T1, HTR1A (Homo sapiens, UniProt P08908); assay: Safetyscan47 GPCR cAMP, Agonist; assay type: cell-based
T1 sequence (P08908 1-422): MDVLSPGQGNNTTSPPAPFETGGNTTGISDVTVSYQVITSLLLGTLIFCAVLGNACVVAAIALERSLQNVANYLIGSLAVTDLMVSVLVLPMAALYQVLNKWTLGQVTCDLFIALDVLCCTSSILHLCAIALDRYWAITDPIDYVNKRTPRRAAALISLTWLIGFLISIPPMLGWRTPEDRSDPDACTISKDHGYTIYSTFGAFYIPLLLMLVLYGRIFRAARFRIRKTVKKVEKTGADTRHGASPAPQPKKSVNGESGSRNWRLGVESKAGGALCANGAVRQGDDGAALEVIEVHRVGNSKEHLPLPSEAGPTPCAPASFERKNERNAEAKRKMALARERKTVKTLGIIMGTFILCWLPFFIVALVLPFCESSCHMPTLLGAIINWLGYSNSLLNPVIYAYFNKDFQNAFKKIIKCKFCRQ

HTR1B = HTR1B (Homo sapiens, UniProt P28222); assay: Safetyscan47 GPCR cAMP, Antagonist; assay type: cell-based
OPRM1 = OPRM1 (Homo sapiens, UniProt P35372); assay: Safetyscan47 GPCR cAMP, Antagonist; assay type: cell-based
hERG = hERG (Homo sapiens, UniProt Q12809); assay: Safetyscan47 Ion Channel, Blocker; assay type: cell-based; settings: human
KvLQT1/minK = KvLQT1/minK (Homo sapiens, UniProt P15382+P51787); assay: Safetyscan47 Ion Channel, Blocker; assay type: cell-based
AChE = AChE (Homo sapiens, UniProt P22303); assay: Safetyscan47 Non-Kinase Enzymes Enzymatic, Inhibitor; assay type: biochemical
SERT = SERT (Homo sapiens, UniProt P31645); assay: Safetyscan47 Transporter, Blocker; assay type: cell-based
[3] = Table S3B, IP 30 mg/kg, mouse, animal 2F001
[4] = Table S3B, IP 30 mg/kg, mouse, animal 2F002
[5] = Table S3B, IP 30 mg/kg, mouse, animal 2F003
[6] = Table S3B, IP 30 mg/kg, mouse, animal 2F004
[7] = Table S3B, IP 30 mg/kg, mouse, animal 2F005
[8] = Table S3B: IP 30 mg/kg, Mean N=5
[9] = Table S3D, IP 10 mg/kg, mouse, animal 1F001
[10] = Table S3D, IP 10 mg/kg, mouse, animal 1F002
[11] = Table S3D, IP 10 mg/kg, mouse, animal 1F003
[12] = Table S3D, IP 10 mg/kg, mouse, animal 1F004
[13] = Table S3D, IP 10 mg/kg, mouse, animal 1F005
[14] = Table S3D, SC 10 mg/kg, mouse, animal 2F001
[15] = Table S3D, SC 10 mg/kg, mouse, animal 2F002
[16] = Table S3D, SC 10 mg/kg, mouse, animal 2F003
[17] = Table S3D, SC 10 mg/kg, mouse, animal 2F004
[18] = Table S3D, SC 10 mg/kg, mouse, animal 2F005
[19] = female, Balb/c, mouse, plasma, ip, 10 mg/kg
[20] = female, Balb/c, mouse, plasma, ip, 30 mg/kg
[21] = female, Balb/c, mouse, plasma, sc, 10 mg/kg

Compound: CC[C@H](C)[C@H](NC(=O)[C@H](CC(C)C)NC(=O)[C@H](CC(=O)O)NC(=O)CNC(=O)[C@H](CCCNC(=N)N)NC(=O)[C@@H](NC(=O)[C@H](Cc1ccccc1)NC(=O)[C@H](Cc1ccc(O)cc1)NC(=O)[C@@H]1CCC(=O)NCC(=O)NCC(=O)N[C@@H](CCCNC(=N)N)C(=O)NCC(=O)N[C@@H](Cc2c[nH]cn2)C(=O)N[C@@H](C(C)C)C(=O)N2CCC[C@H]2C(=O)N1)C(C)C)C(=O)N[C@@H](CO)C(=O)N[C@@H](Cc1ccccc1)C(=O)N[C@@H](Cc1ccc(O)cc1)C(=O)N[C@@H](CCCCNC(=O)CCOCCOCCNC(=O)CCCc1ccc(I)cc1)C(=O)O [lassotide 47] (GGRGHVPEYFVRGDLISFYK([PEG2-Butanoyl(4-(4-I-phenyl))])-OH; lactam N-8)
- IC50 (integrin αvβ3): 1 µM
- IC50 (integrin α5β1): 5.02 µM
- Plasma protein binding, %Recovery ([1]; mouse plasma, RED, 2 μM, 4 h, 37°C): 100%
- fraction unbound at 4 h, 2 μM ([1]; mouse, plasma, pH 7.4): 0.005
- improvement in t1/2 vs 36 ([2]; 30 mg/kg IP, mice): 9 fold
- increase in AUC vs 36 ([2]; 30 mg/kg IP, mice): 39 fold
- Cl ([2]; Mouse, 30 mg/kg IP, mean): 0.3 mL/min/kg
- Vz ([2]; Mouse, 30 mg/kg IP, mean): 0.1 L/kg
- AUClast [2, 3]: 1750000
- CL/F [2, 3]: 0.271
- Cmax [2, 3]: 167000
- Tmax [2, 3]: 2.0
- Vz/F [2, 3]: 118
- t1/2 [2, 3]: 5.0
- AUClast [2, 4]: 1710000
- CL/F [2, 4]: 0.278
- Cmax [2, 4]: 182000
- Tmax [2, 4]: 2.0
- Vz/F [2, 4]: 128
- t1/2 [2, 4]: 5.3
- AUClast [2, 5]: 1270000
- CL/F [2, 5]: 0.356
- Cmax [2, 5]: 96500
- Tmax [2, 5]: 4.0
- Vz/F [2, 5]: 215
- t1/2 [2, 5]: 7.0
- AUClast [2, 6]: 1810000
- CL/F [2, 6]: 0.266
- Cmax [2, 6]: 151000
- Tmax [2, 6]: 2.0
- Vz/F [2, 6]: 109
- t1/2 [2, 6]: 4.7
- AUClast [2, 7]: 2150000
- CL/F [2, 7]: 0.219
- Cmax [2, 7]: 231000
- Tmax [2, 7]: 4.0
- Vz/F [2, 7]: 105
- t1/2 [2, 7]: 5.5
- Vz/F [2, 8]: 135
- t1/2 [2, 8]: 5.52 h
- AUCINF [2, 9]: 531 µg·h/mL
- AUClast [2, 9]: 517000 ng·h/mL
- CL/F [2, 9]: 0.314 mL/min/kg
- Cmax [2, 9]: 74800 ng/mL
- Tmax [2, 9]: 2.0 h
- Vz/F [2, 9]: 122 mL/kg
- t1/2 [2, 9]: 4.5 h
- AUCINF [2, 10]: 482 µg·h/mL
- AUClast [2, 10]: 468000 ng·h/mL
- CL/F [2, 10]: 0.346 mL/min/kg
- Cmax [2, 10]: 75600 ng/mL
- Tmax [2, 10]: 2.0 h
- Vz/F [2, 10]: 128 mL/kg
- t1/2 [2, 10]: 4.3 h
- AUCINF [2, 11]: 604 µg·h/mL
- AUClast [2, 11]: 587000 ng·h/mL
- CL/F [2, 11]: 0.276 mL/min/kg
- Cmax [2, 11]: 57500 ng/mL
- Tmax [2, 11]: 2.0 h
- Vz/F [2, 11]: 108 mL/kg
- t1/2 [2, 11]: 4.5 h
- AUCINF [2, 12]: 628 µg·h/mL
- AUClast [2, 12]: 603000 ng·h/mL
- CL/F [2, 12]: 0.265 mL/min/kg
- Cmax [2, 12]: 56300 ng/mL
- Tmax [2, 12]: 2.0 h
- Vz/F [2, 12]: 112 mL/kg
- t1/2 [2, 12]: 4.9 h
- AUCINF [2, 13]: 640 µg·h/mL
- AUClast [2, 13]: 631000 ng·h/mL
- CL/F [2, 13]: 0.260 mL/min/kg
- Cmax [2, 13]: 68400 ng/mL
- Tmax [2, 13]: 1.0 h
- Vz/F [2, 13]: 91.9 mL/kg
- t1/2 [2, 13]: 4.1 h
- AUCINF [2, 14]: 546 µg·h/mL
- AUClast [2, 14]: 528000 ng·h/mL
- CL/F [2, 14]: 0.305 mL/min/kg
- Cmax [2, 14]: 45700 ng/mL
- Tmax [2, 14]: 4.0 h
- Vz/F [2, 14]: 115 mL/kg
- t1/2 [2, 14]: 4.3 h
- AUCINF [2, 15]: 469 µg·h/mL
- AUClast [2, 15]: 455000 ng·h/mL
- CL/F [2, 15]: 0.355 mL/min/kg
- Cmax [2, 15]: 44700 ng/mL
- Tmax [2, 15]: 4.0 h
- Vz/F [2, 15]: 144 mL/kg
- t1/2 [2, 15]: 4.7 h
- AUCINF [2, 16]: 596 µg·h/mL
- AUClast [2, 16]: 567000 ng·h/mL
- CL/F [2, 16]: 0.280 mL/min/kg
- Cmax [2, 16]: 56800 ng/mL
- Tmax [2, 16]: 4.0 h
- Vz/F [2, 16]: 123 mL/kg
- t1/2 [2, 16]: 5.1 h
- AUCINF [2, 17]: 635 µg·h/mL
- AUClast [2, 17]: 609000 ng·h/mL
- CL/F [2, 17]: 0.262 mL/min/kg
- Cmax [2, 17]: 57900 ng/mL
- Tmax [2, 17]: 4.0 h
- Vz/F [2, 17]: 114 mL/kg
- t1/2 [2, 17]: 5.0 h
- AUCINF [2, 18]: 558 µg·h/mL
- AUClast [2, 18]: 541000 ng·h/mL
- CL/F [2, 18]: 0.299 mL/min/kg
- Cmax [2, 18]: 50000 ng/mL
- Tmax [2, 18]: 4.0 h
- Vz/F [2, 18]: 120 mL/kg
- t1/2 [2, 18]: 4.7 h
- t1/2 ([2]; Table S3D: IP 10 mg/kg, Mean N=5): 4.46 h
- AUC(0-inf) [2, 19]: 577 µg·h/mL
- AUC(0-t) [2, 19]: 561 µg·h/mL
- CL/F [2, 19]: 0.292 mL/min/kg
- Cmax [2, 19]: 66500 ng/mL
- Tmax [2, 19]: 1.8 h
- Vd/F [2, 19]: 0.113 L/kg
- half-life [2, 19]: 4.5 h
- AUC(0-t) [2, 20]: 1740 µg·h/mL
- CL/F [2, 20]: 0.278 mL/min/kg
- Cmax [2, 20]: 166000 ng/mL
- Tmax [2, 20]: 2.8 h
- AUC(0-inf) [2, 21]: 561 µg·h/mL
- AUC(0-t) [2, 21]: 540 µg·h/mL
- CL/F [2, 21]: 0.3 mL/min/kg
- Cmax [2, 21]: 51000 ng/mL
- Tmax [2, 21]: 4 h
- Vd/F [2, 21]: 0.123 L/kg
- half-life [2, 21]: 4.75 h
- EC50 (HRH1): > 45 µM
- Emax (HRH1; read-out: Max Response): 0%
- EC50 (ADRB1): > 45 µM
- Emax (ADRB1; read-out: Max Response): 0%
- EC50 (CNR2): > 45 µM
- Emax (CNR2; read-out: Max Response): 1.85%
- EC50 (HRH2): > 45 µM
- Emax (HRH2; read-out: Max Response): 0%
- EC50 (HTR1A): > 45 µM
- Emax (HTR1A; read-out: Max Response): 30.1%
- IC50 (HTR1B): > 45 µM
- Emax (HTR1B; read-out: Max Response): 0%
- IC50 (OPRM1): > 45 µM
- Emax (OPRM1; OPRM1, read-out: Max Response): 0%
- Emax (hERG): 1.41%
- IC50 (hERG): > 45 µM
- IC50 (KvLQT1/minK): > 45 µM
- Emax (KvLQT1/minK; read-out: Max Response): 24.8%
- IC50 (AChE): > 45 µM
- Emax (AChE; read-out: Max Response): 7.88%
- IC50 (SERT): > 45 µM
- Emax (SERT; read-out: Max Response): 22.5%

From article doi:10.1101/2025.01.28.635346v1 (bioRxiv, 2025)
